This is an account of results in ChEMBL document CHEMBL5291721, “A preclinical secondary pharmacology resource illuminates target-adverse drug reaction associations of marketed drugs” (Nat Commun, 2023).

For assay [1], the target named is Beta-3 adrenergic receptor (Homo sapiens, UniProt P13945).
The target in the next assay is T1, B1 bradykinin receptor (Homo sapiens, UniProt P46663).
T1 sequence (P46663 whole entry): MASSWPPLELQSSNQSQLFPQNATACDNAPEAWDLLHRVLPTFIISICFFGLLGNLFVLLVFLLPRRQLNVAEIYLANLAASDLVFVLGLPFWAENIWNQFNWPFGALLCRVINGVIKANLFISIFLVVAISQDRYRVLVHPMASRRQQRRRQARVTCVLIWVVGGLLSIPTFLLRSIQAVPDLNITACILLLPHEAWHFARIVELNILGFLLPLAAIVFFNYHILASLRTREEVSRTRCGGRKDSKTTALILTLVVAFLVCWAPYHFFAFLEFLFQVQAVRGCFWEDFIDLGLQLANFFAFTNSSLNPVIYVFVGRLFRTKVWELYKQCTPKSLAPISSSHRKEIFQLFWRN

For assay [2], the target named is Receptor tyrosine-protein kinase erbB-2 (Homo sapiens, UniProt P04626). The assay is classed as functional.
Receptor tyrosine-protein kinase erbB-2, sequence (P04626 whole entry): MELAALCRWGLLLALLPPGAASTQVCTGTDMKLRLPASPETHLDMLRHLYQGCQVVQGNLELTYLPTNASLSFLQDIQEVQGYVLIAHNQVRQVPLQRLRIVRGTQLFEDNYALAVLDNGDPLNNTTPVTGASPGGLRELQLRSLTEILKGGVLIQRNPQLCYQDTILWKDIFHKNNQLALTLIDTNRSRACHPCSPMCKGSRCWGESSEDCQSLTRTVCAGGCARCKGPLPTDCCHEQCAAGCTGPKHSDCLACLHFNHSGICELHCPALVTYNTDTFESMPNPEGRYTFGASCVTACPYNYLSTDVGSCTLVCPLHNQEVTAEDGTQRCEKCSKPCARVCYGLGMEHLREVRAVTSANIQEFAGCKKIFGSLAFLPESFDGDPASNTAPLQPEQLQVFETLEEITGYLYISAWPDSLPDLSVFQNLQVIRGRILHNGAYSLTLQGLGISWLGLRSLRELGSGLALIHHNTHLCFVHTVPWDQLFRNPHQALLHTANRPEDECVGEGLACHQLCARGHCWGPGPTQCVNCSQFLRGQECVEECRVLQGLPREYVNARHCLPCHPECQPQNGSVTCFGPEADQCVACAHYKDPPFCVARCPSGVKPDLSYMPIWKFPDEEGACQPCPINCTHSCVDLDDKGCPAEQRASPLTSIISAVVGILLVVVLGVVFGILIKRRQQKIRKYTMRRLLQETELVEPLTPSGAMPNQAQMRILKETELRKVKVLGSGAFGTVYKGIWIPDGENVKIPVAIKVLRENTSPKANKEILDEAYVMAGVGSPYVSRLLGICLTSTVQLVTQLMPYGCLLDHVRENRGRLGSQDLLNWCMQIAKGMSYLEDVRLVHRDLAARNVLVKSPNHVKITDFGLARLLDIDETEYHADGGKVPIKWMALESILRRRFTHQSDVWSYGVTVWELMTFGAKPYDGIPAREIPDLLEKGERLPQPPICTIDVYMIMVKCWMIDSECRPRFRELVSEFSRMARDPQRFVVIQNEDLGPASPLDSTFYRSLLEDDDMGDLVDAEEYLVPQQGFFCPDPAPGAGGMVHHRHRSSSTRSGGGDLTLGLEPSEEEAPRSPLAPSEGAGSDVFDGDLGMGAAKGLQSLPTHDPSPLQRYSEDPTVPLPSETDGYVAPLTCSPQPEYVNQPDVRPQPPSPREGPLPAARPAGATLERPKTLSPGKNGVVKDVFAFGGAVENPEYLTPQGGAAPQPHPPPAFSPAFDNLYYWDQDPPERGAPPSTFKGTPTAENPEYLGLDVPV
Assay [3] addresses Gamma-aminobutyric acid receptor subunit alpha-1 (Rattus norvegicus, UniProt P62813).
Assay [4] addresses 5-hydroxytryptamine receptor 2B (Homo sapiens, UniProt P41595).
For assay [5], the target named is Neurotensin receptor type 1 (Homo sapiens, UniProt P30989).
Neurotensin receptor type 1, sequence (P30989 whole entry): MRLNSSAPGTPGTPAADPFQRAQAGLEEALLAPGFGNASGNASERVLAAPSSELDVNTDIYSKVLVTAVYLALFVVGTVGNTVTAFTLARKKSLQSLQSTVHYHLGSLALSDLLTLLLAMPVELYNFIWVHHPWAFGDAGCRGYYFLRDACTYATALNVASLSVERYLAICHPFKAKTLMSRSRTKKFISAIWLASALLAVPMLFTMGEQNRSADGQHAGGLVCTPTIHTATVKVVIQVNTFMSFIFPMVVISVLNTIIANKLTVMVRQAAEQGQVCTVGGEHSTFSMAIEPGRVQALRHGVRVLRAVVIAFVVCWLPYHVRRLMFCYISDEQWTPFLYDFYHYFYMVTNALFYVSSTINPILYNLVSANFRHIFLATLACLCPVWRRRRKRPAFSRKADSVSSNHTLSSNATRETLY
The target in assay [6] is T2, 5-hydroxytryptamine receptor 1A (Homo sapiens, UniProt P08908).
T2 sequence (P08908 whole entry): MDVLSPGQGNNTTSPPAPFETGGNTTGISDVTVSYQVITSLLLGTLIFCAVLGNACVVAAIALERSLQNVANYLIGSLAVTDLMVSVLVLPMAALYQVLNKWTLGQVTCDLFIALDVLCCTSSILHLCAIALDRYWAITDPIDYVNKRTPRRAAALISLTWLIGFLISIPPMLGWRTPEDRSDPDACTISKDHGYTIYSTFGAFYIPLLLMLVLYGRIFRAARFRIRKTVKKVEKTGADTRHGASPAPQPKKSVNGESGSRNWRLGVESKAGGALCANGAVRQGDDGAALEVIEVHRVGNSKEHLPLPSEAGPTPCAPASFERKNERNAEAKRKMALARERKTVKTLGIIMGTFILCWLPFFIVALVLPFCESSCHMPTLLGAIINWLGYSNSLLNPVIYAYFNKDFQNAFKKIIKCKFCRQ

Assay [7] has as its target T3, Muscarinic acetylcholine receptor M2 (Homo sapiens, UniProt P08172).
T3 sequence (P08172 whole entry): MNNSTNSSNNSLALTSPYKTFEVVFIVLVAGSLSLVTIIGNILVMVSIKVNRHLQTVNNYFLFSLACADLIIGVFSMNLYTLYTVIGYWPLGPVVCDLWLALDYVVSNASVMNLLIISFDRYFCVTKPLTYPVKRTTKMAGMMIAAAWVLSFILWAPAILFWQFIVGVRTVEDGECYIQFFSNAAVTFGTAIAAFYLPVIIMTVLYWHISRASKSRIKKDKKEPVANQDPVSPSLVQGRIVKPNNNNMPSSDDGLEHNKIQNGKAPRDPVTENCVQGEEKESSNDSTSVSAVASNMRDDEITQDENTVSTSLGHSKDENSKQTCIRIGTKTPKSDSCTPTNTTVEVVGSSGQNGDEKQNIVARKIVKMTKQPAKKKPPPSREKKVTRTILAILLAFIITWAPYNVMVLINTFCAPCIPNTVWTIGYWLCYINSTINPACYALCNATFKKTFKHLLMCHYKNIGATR

Assay [8] deals with T4, Alpha-1A adrenergic receptor (Homo sapiens, UniProt P35348).
T4 sequence (P35348 whole entry): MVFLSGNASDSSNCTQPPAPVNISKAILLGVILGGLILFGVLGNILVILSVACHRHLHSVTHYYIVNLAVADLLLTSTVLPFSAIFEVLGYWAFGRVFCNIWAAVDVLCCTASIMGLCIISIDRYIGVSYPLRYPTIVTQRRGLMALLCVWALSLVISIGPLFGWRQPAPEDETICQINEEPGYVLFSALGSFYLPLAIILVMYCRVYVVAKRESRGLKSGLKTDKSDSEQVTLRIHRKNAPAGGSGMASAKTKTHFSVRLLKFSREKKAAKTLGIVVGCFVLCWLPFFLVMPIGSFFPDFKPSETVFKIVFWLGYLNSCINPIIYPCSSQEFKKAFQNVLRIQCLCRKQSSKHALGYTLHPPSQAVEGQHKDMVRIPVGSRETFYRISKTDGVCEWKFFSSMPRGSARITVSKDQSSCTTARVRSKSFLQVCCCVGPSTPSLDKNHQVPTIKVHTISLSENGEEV

Assay [9] deals with T5, Muscarinic acetylcholine receptor M1 (Homo sapiens, UniProt P11229).
T5 sequence (P11229 whole entry): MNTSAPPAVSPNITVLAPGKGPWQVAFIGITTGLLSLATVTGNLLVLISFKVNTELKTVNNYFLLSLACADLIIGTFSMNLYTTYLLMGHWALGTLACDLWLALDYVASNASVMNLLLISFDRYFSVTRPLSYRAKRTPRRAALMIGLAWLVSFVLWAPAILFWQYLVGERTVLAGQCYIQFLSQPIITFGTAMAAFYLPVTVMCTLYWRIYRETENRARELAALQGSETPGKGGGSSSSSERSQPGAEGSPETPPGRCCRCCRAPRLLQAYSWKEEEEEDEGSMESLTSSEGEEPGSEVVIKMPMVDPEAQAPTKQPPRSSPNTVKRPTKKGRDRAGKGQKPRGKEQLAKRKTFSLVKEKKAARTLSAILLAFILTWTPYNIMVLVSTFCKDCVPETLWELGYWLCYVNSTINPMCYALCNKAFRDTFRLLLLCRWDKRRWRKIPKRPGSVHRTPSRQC
It counts as functional.

What is called AC50 is the concentration at which the activity in the assay is half-maximal. A high value points to weaker potency.
Note: assay procedure not described here.

Beta-3 adrenergic receptor, sequence (P13945 whole entry): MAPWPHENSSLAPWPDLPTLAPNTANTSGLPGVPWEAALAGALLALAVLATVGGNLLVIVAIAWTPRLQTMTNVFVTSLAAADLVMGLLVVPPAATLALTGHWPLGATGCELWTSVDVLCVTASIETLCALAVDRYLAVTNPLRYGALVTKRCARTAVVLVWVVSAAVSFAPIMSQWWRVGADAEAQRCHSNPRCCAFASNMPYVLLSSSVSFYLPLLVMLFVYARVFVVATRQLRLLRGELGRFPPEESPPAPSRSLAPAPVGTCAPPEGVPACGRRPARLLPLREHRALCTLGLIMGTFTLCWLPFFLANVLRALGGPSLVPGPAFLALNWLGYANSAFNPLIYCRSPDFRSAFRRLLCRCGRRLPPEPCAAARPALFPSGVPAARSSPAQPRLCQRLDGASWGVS
5-hydroxytryptamine receptor 2B, sequence (P41595 whole entry): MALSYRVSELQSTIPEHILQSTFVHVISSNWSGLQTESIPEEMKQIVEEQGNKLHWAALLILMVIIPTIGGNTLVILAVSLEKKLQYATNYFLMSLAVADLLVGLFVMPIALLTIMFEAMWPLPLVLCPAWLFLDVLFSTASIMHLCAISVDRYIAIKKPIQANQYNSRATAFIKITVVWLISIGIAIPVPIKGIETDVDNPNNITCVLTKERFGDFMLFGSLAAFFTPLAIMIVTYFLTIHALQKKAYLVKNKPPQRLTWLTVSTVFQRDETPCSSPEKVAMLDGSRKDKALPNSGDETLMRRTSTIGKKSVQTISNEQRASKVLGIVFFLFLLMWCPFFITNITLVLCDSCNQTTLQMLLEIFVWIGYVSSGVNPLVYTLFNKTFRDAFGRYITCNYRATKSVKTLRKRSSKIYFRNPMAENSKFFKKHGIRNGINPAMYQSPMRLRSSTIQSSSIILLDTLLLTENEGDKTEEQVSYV
Gamma-aminobutyric acid receptor subunit alpha-1, sequence (P62813 whole entry): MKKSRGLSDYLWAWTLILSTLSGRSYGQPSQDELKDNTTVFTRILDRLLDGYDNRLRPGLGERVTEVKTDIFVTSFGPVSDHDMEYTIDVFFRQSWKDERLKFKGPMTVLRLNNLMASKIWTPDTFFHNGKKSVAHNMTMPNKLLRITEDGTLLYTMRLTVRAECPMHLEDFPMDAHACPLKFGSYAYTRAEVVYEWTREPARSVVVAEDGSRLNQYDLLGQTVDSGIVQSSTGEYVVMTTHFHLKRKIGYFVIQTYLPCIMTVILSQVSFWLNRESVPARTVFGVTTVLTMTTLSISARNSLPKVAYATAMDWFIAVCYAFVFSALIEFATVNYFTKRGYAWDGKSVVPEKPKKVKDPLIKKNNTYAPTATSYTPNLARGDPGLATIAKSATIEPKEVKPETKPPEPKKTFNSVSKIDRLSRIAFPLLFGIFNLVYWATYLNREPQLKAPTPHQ

Turning to `NCC(CC(=O)O)c1ccc(Cl)cc1` (stereo unspecified) [BACLOFEN], the AC50 was more than 30 µM in assay [1]; more than 30 µM on B1 bradykinin receptor; more than 30 µM in assay [2]; more than 10 µM in [3]; more than 10 µM in [4]; more than 30 µM in assay [5]. The AC50 in assay [6], in assay [7] and in assay [8] was more than 10 µM in each case.
On to `CC(C)C[C@H]1C(=O)N2CCC[C@H]2[C@]2(O)O[C@](NC(=O)[C@@H]3C=C4c5cccc6[nH]c(Br)c(c56)C[C@H]4N(C)C3)(C(C)C)C(=O)N12` [BROMOCRIPTINE], for which the AC50 in [1] is 18.9 µM; on B1 bradykinin receptor, more than 30 µM; in [2], more than 30 µM; in assay [3], more than 10 µM; in assay [4] it was 0.412 µM; in assay [5], more than 30 µM. The values for the AC50 in assay [6] and in [7] were 0.319 µM and more than 10 µM, respectively.
As for `Cc1c(C(=O)NN2CCCCC2)nn(-c2ccc(Cl)cc2Cl)c1-c1ccc(Cl)cc1` [RIMONABANT], the AC50 in assay [1] was more than 30 µM; on B1 bradykinin receptor it was more than 30 µM; in [9], more than 30 µM; in assay [2], more than 30 µM; in assay [3], more than 10 µM; in assay [4], more than 10 µM. The concentration at half-maximal activity (AC50) in [5] is more than 30 µM; in assay [6], more than 10 µM; in assay [8], 13.7 µM.
In the case of `Cn1nnc2c(C(N)=O)ncn2c1=O` [TEMOZOLOMIDE], the AC50 is more than 30 µM in assay [1]; more than 30 µM on B1 bradykinin receptor; more than 30 µM in assay [9]; more than 30 µM in [2]; more than 10 µM in [3]; more than 10 µM in assay [4]. For the same compound, the AC50 in [5] is more than 30 µM; in [6] it was more than 10 µM; in assay [7] it was more than 10 µM; in assay [8], more than 10 µM.
